The source of these data is PMC5218480 (PLoS ONE, 2017).

The test deals with MV-4-11 cells. The test is described as follows: Gene expression microarray analysis (Affymetrix PrimeView) and GSEA. It is filed as cell-based, human. Further details: RFU PODN (11730768_x_at) / Fold change /veh PODN (11730768_x_at) / RFU LINC00158 (11744669_a_at) / Fold change /veh LINC00158 (11744669_a_at) / RFU DUSP10 (11751237_a_at) / Fold change /veh DUSP10 (11751237_a_at) / RFU ID3 (11757404_x_at) / Fold change /veh ID3 (11757404_x_at) / RFU PLEKHG5 (11737974_s_at) / Fold change /veh PLEKHG5 (11737974_s_at) / RFU LRRC4B (11730491_at) / Fold change /veh LRRC4B (11730491_at) / RFU GIMAP4 (11747438_a_at) / Fold change /veh GIMAP4 (11747438_a_at) / RFU KRT8 (11758183_x_at) / Fold change /veh KRT8 (11758183_x_at) / RFU CNN1 (11734310_a_at) / Fold change /veh CNN1 (11734310_a_at) / RFU VPS37D (11726825_at) / Fold change /veh VPS37D (11726825_at) / RFU C10orf10 (11716522_x_at) / Fold change /veh C10orf10 (11716522_x_at) / RFU KIR2DL2 /// KIR2DL4 /// KIR2DL5A /// KIR2DL5B /// KIR2DS1 /// KIR2DS2 /// KIR2DS3 /// KIR2DS4 /// KIR3DL3 /// KIR3DL3 /// KIR3DS1 (11738374_at) / Fold change /veh KIR2DL2 /// KIR2DL4 /// KIR2DL5A /// KIR2DL5B /// KIR2DS1 /// KIR2DS2 /// KIR2DS3 /// KIR2DS4 /// KIR3DL3 /// KIR3DL3 /// KIR3DS1 (11738374_at) / RFU C1QL1 (11718748_at) / Fold change /veh C1QL1 (11718748_at) / RFU TMPRSS4 (11747572_a_at) / Fold change /veh TMPRSS4 (11747572_a_at) / RFU HAMP (11756126_x_at) / Fold change /veh HAMP (11756126_x_at) / RFU RNFT2 (11725882_a_at) / Fold change /veh RNFT2 (11725882_a_at) / RFU NR4A2 (11747474_a_at) / Fold change /veh NR4A2 (11747474_a_at) / RFU ABCC12 (11746883_a_at) / Fold change /veh ABCC12 (11746883_a_at) / RFU TMEM136 (11760407_x_at) / Fold change /veh TMEM136 (11760407_x_at) / RFU CLDN22 /// WWC2 (11732394_at) / Fold change /veh CLDN22 /// WWC2 (11732394_at) / RFU HLA-DPB1 (11760878_x_at) / Fold change /veh HLA-DPB1 (11760878_x_at) / RFU SPINT1 (11716480_a_at) / Fold change /veh SPINT1 (11716480_a_at) / RFU GAP43 (11754022_s_at) / Fold change /veh GAP43 (11754022_s_at) / RFU A4GNT (11735810_at) / Fold change /veh A4GNT (11735810_at) / RFU PRB3 (11715151_x_at) / Fold change /veh PRB3 (11715151_x_at) / RFU TUBB4B (11761932_at) / Fold change /veh TUBB4B (11761932_at) / RFU CAPN14 (11732068_a_at) / Fold change /veh CAPN14 (11732068_a_at) / RFU TMCC2 (11721928_a_at) / Fold change /veh TMCC2 (11721928_a_at) / RFU IRGQ (11745062_a_at) / Fold change /veh IRGQ (11745062_a_at) / RFU FAM174B (11720279_a_at) / Fold change /veh FAM174B (11720279_a_at) / RFU TMPRSS4 (11748680_a_at) / Fold change /veh TMPRSS4 (11748680_a_at) / RFU FAM212B (11763350_a_at) / Fold change /veh FAM212B (11763350_a_at) / RFU PLEKHG5 (11743358_a_at) / Fold change /veh PLEKHG5 (11743358_a_at) / RFU ZSCAN30 (11745921_a_at) / Fold change /veh ZSCAN30 (11745921_a_at) / RFU CMKLR1 (11741424_a_at) / Fold change /veh CMKLR1 (11741424_a_at) / RFU LOC101060620 /// MAPK8IP1 (11723275_at) / Fold change /veh LOC101060620 /// MAPK8IP1 (11723275_at) / RFU SPTSSB (11747773_x_at) / Fold change /veh SPTSSB (11747773_x_at) / RFU PRSS12 (11739890_at) / Fold change /veh PRSS12 (11739890_at) / RFU BIN1 (11741810_x_at) / Fold change /veh BIN1 (11741810_x_at) / RFU WNT11 (11732464_a_at) / Fold change /veh WNT11 (11732464_a_at) / RFU C10orf10 (11716521_a_at) / Fold change /veh C10orf10 (11716521_a_at) / RFU C5orf56 (11738089_at) / Fold change /veh C5orf56 (11738089_at) / RFU CYB561 (11721691_x_at) / Fold change /veh CYB561 (11721691_x_at) / RFU ANKRD19P (11752326_a_at) / Fold change /veh ANKRD19P (11752326_a_at) / RFU OR2T12 /// OR2T33 /// OR2T8 (11738714_s_at) / Fold change /veh OR2T12 /// OR2T33 /// OR2T8 (11738714_s_at) / RFU VCAN (11748164_a_at) / Fold change /veh VCAN (11748164_a_at) / RFU JSRP1 (11732532_at) / Fold change /veh JSRP1 (11732532_at) / RFU KRTAP10-11 (11738290_x_at) / Fold change /veh KRTAP10-11 (11738290_x_at) / RFU MYO3A (11730013_a_at) / Fold change /veh MYO3A (11730013_a_at) / RFU EBF3 (11725865_a_at) / Fold change /veh EBF3 (11725865_a_at) / RFU CAMK2N1 (11719241_x_at) / Fold change /veh CAMK2N1 (11719241_x_at) / RFU C5orf56 (11738088_a_at) / Fold change /veh C5orf56 (11738088_a_at) / RFU OLFML3 (11715873_a_at) / Fold change /veh OLFML3 (11715873_a_at) / RFU LOC100653217 /// NTM (11731650_a_at) / Fold change /veh LOC100653217 /// NTM (11731650_a_at) / RFU MAPK11 (11762145_a_at) / Fold change /veh MAPK11 (11762145_a_at) / RFU FIZ1 (11724087_x_at) / Fold change /veh FIZ1 (11724087_x_at) / RFU OASL (11726364_x_at) / Fold change /veh OASL (11726364_x_at) / RFU SOX15 (11748057_x_at) / Fold change /veh SOX15 (11748057_x_at) / RFU CD79A (11719716_a_at) / Fold change /veh CD79A (11719716_a_at) / RFU HIST1H1D (11736915_at) / Fold change /veh HIST1H1D (11736915_at) / RFU CASKIN2 (11723855_a_at) / Fold change /veh CASKIN2 (11723855_a_at) / RFU LOC730098 (11760151_x_at) / Fold change /veh LOC730098 (11760151_x_at) / RFU OR4N2 (11742367_at) / Fold change /veh OR4N2 (11742367_at) / RFU PRRT2 (11749266_a_at) / Fold change /veh PRRT2 (11749266_a_at) / RFU SNX32 (11753110_a_at) / Fold change /veh SNX32 (11753110_a_at) / RFU CDHR5 (11726645_a_at) / Fold change /veh CDHR5 (11726645_a_at) / RFU RCAN1 (11760418_a_at) / Fold change /veh RCAN1 (11760418_a_at) / RFU FAM167A (11723789_a_at) / Fold change /veh FAM167A (11723789_a_at) / RFU FAM26E (11764081_at) / Fold change /veh FAM26E (11764081_at) / RFU ISYNA1 (11749810_s_at) / Fold change /veh ISYNA1 (11749810_s_at) / RFU ACY1 (11761880_at) / Fold change /veh ACY1 (11761880_at) / RFU 11764098_at / Fold change /veh 11764098_at / RFU SAMD14 (11745864_x_at) / Fold change /veh SAMD14 (11745864_x_at) / RFU NPB (11741838_a_at) / Fold change /veh NPB (11741838_a_at) / RFU TMPRSS6 (11731388_a_at) / Fold change /veh TMPRSS6 (11731388_a_at) / RFU KRTAP10-2 (11738614_at) / Fold change /veh KRTAP10-2 (11738614_at) / RFU ARHGAP8 /// PRR5-ARHGAP8 (11727945_x_at) / Fold change /veh ARHGAP8 /// PRR5-ARHGAP8 (11727945_x_at) / RFU KRTAP5-7 /// NADSYN1 (11734609_at) / Fold change /veh KRTAP5-7 /// NADSYN1 (11734609_at) / RFU RASL12 (11751679_a_at) / Fold change /veh RASL12 (11751679_a_at) / RFU CDKN2B (11736163_a_at) / Fold change /veh CDKN2B (11736163_a_at) / RFU PRF1 (11729649_at) / Fold change /veh PRF1 (11729649_at) / RFU, ZNF638 /// ZNF638-IT1 / Fold change vs veh, ZNF638 /// ZNF638-IT1 / RFU, PANK3 / Fold change vs veh, PANK3 / RFU, SH3YL1 / Fold change vs veh, SH3YL1 / RFU, ZEB2 / Fold change vs veh, ZEB2 / RFU, NRIP1 / Fold change vs veh, NRIP1 / RFU, PTTG1IP / Fold change vs veh, PTTG1IP / RFU, CAPN2 / Fold change vs veh, CAPN2 / RFU, MED14 / Fold change vs veh, MED14 / RFU, SNORA58 / Fold change vs veh, SNORA58 / RFU, C1orf63 / Fold change vs veh, C1orf63 / RFU, LRRFIP1 / Fold change vs veh, LRRFIP1 / RFU, NDUFAF7 / Fold change vs veh, NDUFAF7 / RFU, SLC12A2 / Fold change vs veh, SLC12A2 / RFU, IBTK / Fold change vs veh, IBTK / RFU, ESF1 / Fold change vs veh, ESF1 / Fold change vs veh, TMEM50B / RFU, TAOK1 / Fold change vs veh, TAOK1 / RFU, ACBD3 / Fold change vs veh, ACBD3 / RFU, TMA16 / Fold change vs veh, TMA16 / RFU, RWDD3 / Fold change vs veh, RWDD3 / RFU, BCAT1 / Fold change vs veh, BCAT1 / RFU, EDEM3 / Fold change vs veh, EDEM3 / RFU, TMEM33 / Fold change vs veh, TMEM33 / RFU, WDR75 / Fold change vs veh, WDR75 / RFU, AHCTF1 / Fold change vs veh, AHCTF1 / RFU, TFRC / Fold change vs veh, TFRC / RFU, ZDHHC17 / Fold change vs veh, ZDHHC17 / RFU, NOM1 / Fold change vs veh, NOM1 / RFU, ARL8B / Fold change vs veh, ARL8B / RFU, ZBTB11 / Fold change vs veh, ZBTB11 / RFU, TAMM41 / Fold change vs veh, TAMM41 / RFU, KIAA1704 /// LOC100996395 / Fold change vs veh, KIAA1704 /// LOC100996395 / RFU, ING1 / Fold change vs veh, ING1 / RFU, TRMT61B / Fold change vs veh, TRMT61B / RFU, FUBP3 / Fold change vs veh, FUBP3 / RFU, TP53 / Fold change vs veh, TP53 / RFU, TNKS2 / Fold change vs veh, TNKS2 / RFU, ZFP14 / Fold change vs veh, ZFP14 / RFU, ACTR2 / Fold change vs veh, ACTR2 / RFU, PPP3R1 / Fold change vs veh, PPP3R1 / RFU, PIK3R1 / Fold change vs veh, PIK3R1 / RFU, HNRNPA1 / Fold change vs veh, HNRNPA1 / RFU, RNF170 / Fold change vs veh, RNF170 / RFU, ZNF28 / Fold change vs veh, ZNF28 / RFU, RNGTT / Fold change vs veh, RNGTT / RFU, OGT / Fold change vs veh, OGT / RFU, BRD1 / Fold change vs veh, BRD1 / RFU, MARS / Fold change vs veh, MARS / RFU, ZNF655 / Fold change vs veh, ZNF655 / RFU, FAHD1 / Fold change vs veh, FAHD1 / RFU, BDP1 / Fold change vs veh, BDP1 / RFU, LRRCC1 / Fold change vs veh, LRRCC1 / RFU, ARID1A / Fold change vs veh, ARID1A / RFU, ZNF146 / Fold change vs veh, ZNF146 / RFU, ZNF330 / Fold change vs veh, ZNF330 / RFU, GPN3 / Fold change vs veh, GPN3 / RFU, C9orf123 / Fold change vs veh, C9orf123 / RFU, N4BP2L2 / Fold change vs veh, N4BP2L2 / RFU, ARFIP1 / Fold change vs veh, ARFIP1 / RFU, FAM179B / Fold change vs veh, FAM179B / RFU, BCL10 / Fold change vs veh, BCL10 / RFU, UHRF1BP1L / Fold change vs veh, UHRF1BP1L / RFU, BET1 / Fold change vs veh, BET1 / RFU, CNOT2 / Fold change vs veh, CNOT2 / RFU, ZNF268 / Fold change vs veh, ZNF268 / Fold change vs veh, ZNF507 / RFU, DGCR2 / Fold change vs veh, DGCR2 / RFU, WDSUB1 / Fold change vs veh, WDSUB1 / Fold change vs veh, HSP90B1 /// MIR3652 / RFU, ADSS / Fold change vs veh, ADSS / RFU, GK / Fold change vs veh, GK / RFU, ZNF148 / Fold change vs veh, ZNF148 / RFU, TAF9 / Fold change vs veh, TAF9 / RFU, SLC1A5 / Fold change vs veh, SLC1A5 / RFU, SLMO2 / Fold change vs veh, SLMO2 / RFU, ABCC4 / Fold change vs veh, ABCC4 / RFU, LOC101060439 /// RAP1B / Fold change vs veh, LOC101060439 /// RAP1B / RFU, RFX7 / Fold change vs veh, RFX7 / RFU, GTPBP10 / Fold change vs veh, GTPBP10 / RFU, CNEP1R1 / Fold change vs veh, CNEP1R1 / RFU, BIVM-ERCC5 /// ERCC5 / Fold change vs veh, BIVM-ERCC5 /// ERCC5 / RFU, ILF3 / Fold change vs veh, ILF3 / RFU 11762660_at / Fold change /veh 11762660_at / RFU VCAN (11757783_s_at) / Fold change /veh VCAN (11757783_s_at) / RFU DDX43 (11728927_at) / Fold change /veh DDX43 (11728927_at) / RFU KRT8 (11758188_x_at) / Fold change /veh KRT8 (11758188_x_at) / RFU NKD1 (11759106_at) / Fold change /veh NKD1 (11759106_at) / RFU SRD5A1 (11742802_a_at) / Fold change /veh SRD5A1 (11742802_a_at) / RFU TPSAB1 /// TPSB2 (11721975_s_at) / Fold change /veh TPSAB1 /// TPSB2 (11721975_s_at) / RFU GSTM3 (11746129_a_at) / Fold change /veh GSTM3 (11746129_a_at) / RFU IL23R (11737362_x_at) / Fold change /veh IL23R (11737362_x_at) / RFU TMEM51 (11727254_a_at) / Fold change /veh TMEM51 (11727254_a_at) / RFU PIWIL2 (11732686_x_at) / Fold change /veh PIWIL2 (11732686_x_at) / RFU ORM1 (11744905_x_at) / Fold change /veh ORM1 (11744905_x_at) / RFU CCDC152 (11743942_at) / Fold change /veh CCDC152 (11743942_at) / RFU ECM1 (11717891_a_at) / Fold change /veh ECM1 (11717891_a_at) / RFU IL23R (11748794_a_at) / Fold change /veh IL23R (11748794_a_at) / RFU TNFAIP8L3 (11732012_x_at) / Fold change /veh TNFAIP8L3 (11732012_x_at) / RFU MBOAT4 (11741988_at) / Fold change /veh MBOAT4 (11741988_at) / RFU 11764193_at / Fold change /veh 11764193_at / RFU TMEM53 (11763286_at) / Fold change /veh TMEM53 (11763286_at) / RFU MAGEB2 (11727129_at) / Fold change /veh MAGEB2 (11727129_at) / RFU TMEM200A (11744735_a_at) / Fold change /veh TMEM200A (11744735_a_at) / RFU CCDC152 (11751479_a_at) / Fold change /veh CCDC152 (11751479_a_at) / RFU FAM211A (11726209_a_at) / Fold change /veh FAM211A (11726209_a_at) / RFU RGS16 (11746705_a_at) / Fold change /veh RGS16 (11746705_a_at) / RFU VCAN (11755009_s_at) / Fold change /veh VCAN (11755009_s_at) / RFU RHOB (11743442_s_at) / Fold change /veh RHOB (11743442_s_at) / RFU RGS16 (11720943_a_at) / Fold change /veh RGS16 (11720943_a_at) / RFU RGS16 (11720944_at) / Fold change /veh RGS16 (11720944_at) / RFU, VPS4B / Fold change vs veh, VPS4B / RFU, CREB1 / Fold change vs veh, CREB1 / RFU, DNAJC13 / Fold change vs veh, DNAJC13 / RFU, GNAQ / Fold change vs veh, GNAQ / RFU, CDK5R1 / Fold change vs veh, CDK5R1 / RFU, ZRANB3 / Fold change vs veh, ZRANB3 / RFU, CUL4A / Fold change vs veh, CUL4A / RFU, CCNY / Fold change vs veh, CCNY / RFU, UFL1 / Fold change vs veh, UFL1 / RFU, COG3 / Fold change vs veh, COG3 / RFU, DIAPH2 / Fold change vs veh, DIAPH2 / RFU, SKA2 / Fold change vs veh, SKA2 / RFU, AFF3 / Fold change vs veh, AFF3 / RFU, LMF1 / Fold change vs veh, LMF1 / RFU, IPO11 / Fold change vs veh, IPO11 / RFU, DFFB / Fold change vs veh, DFFB / RFU, FOXP1 / Fold change vs veh, FOXP1 / RFU, CARD8 / Fold change vs veh, CARD8 / RFU, STRN3 / Fold change vs veh, STRN3 / RFU, ADK / Fold change vs veh, ADK / RFU, RASSF2 / Fold change vs veh, RASSF2 / RFU, WIPF1 / Fold change vs veh, WIPF1 / RFU, LARP1B / Fold change vs veh, LARP1B / RFU, RASA1 / Fold change vs veh, RASA1 / RFU, RB1 / Fold change vs veh, RB1 / RFU, PPFIA1 / Fold change vs veh, PPFIA1 / RFU, MAT2A / Fold change vs veh, MAT2A / RFU, CCT5 / Fold change vs veh, CCT5 / RFU, WDR92 / Fold change vs veh, WDR92 / RFU, CUX1 / Fold change vs veh, CUX1 / RFU, TTC7A / Fold change vs veh, TTC7A / RFU, TMEM135 / Fold change vs veh, TMEM135 / RFU, DEPTOR / Fold change vs veh, DEPTOR / RFU, CPM / Fold change vs veh, CPM / RFU, DNAJB6 / Fold change vs veh, DNAJB6 / RFU, CACNA2D3 / Fold change vs veh, CACNA2D3 / RFU, DTX4 / Fold change vs veh, DTX4 / RFU, TFCP2 / Fold change vs veh, TFCP2 / RFU, GMCL1 /// GMCL1P1 / Fold change vs veh, GMCL1 /// GMCL1P1 / RFU, AEBP2 / Fold change vs veh, AEBP2 / RFU, SNHG1 /// SNORD22 /// SNORD25 /// SNORD26 /// SNORD27 /// SNORD28 /// SNORD29 /// SNORD31 / Fold change vs veh, SNHG1 /// SNORD22 /// SNORD25 /// SNORD26 /// SNORD27 /// SNORD28 /// SNORD29 /// SNORD31 / Fold change (Aza/veh), C12orf56 (ProbeSet 11735607_a_at) / Fold change (ACY-1035/veh), C12orf56 (ProbeSet 11735607_a_at) / Fold change (Aza/veh), FGFR1OP (ProbeSet 11751329_s_at) / Fold change (ACY-1035/veh), FGFR1OP (ProbeSet 11751329_s_at) / Fold change (Aza/veh), VPS36 (ProbeSet 11739960_a_at) / Fold change (ACY-1035/veh), VPS36 (ProbeSet 11739960_a_at) / RFU SYPL1 (11715823_x_at) / Fold change /veh SYPL1 (11715823_x_at) / RFU IGFBP7 (11715501_s_at) / Fold change /veh IGFBP7 (11715501_s_at) / RFU REEP3 (11722064_at) / Fold change /veh REEP3 (11722064_at) / RFU IGLL1 (11728026_x_at) / Fold change /veh IGLL1 (11728026_x_at): dose or concentration left out as unconfirmed. As to conditions: ProbeSet 11750457_a_at; LIST B.

In the case of `Nc1ncn([C@@H]2O[C@H](CO)[C@@H](O)[C@H]2O)c(=O)n1` [azacitidine], the “Fold change vs veh, GTPBP10” value is listed as 0.84.
